Target: NLuc (Oplophorus gracilirostris, UniProt Q9GV45, A31E/A60N/A81I/F95D/I117V/K70R/L54V/L99Q/M102K/N193R/P142E/Q151K/Q38R/Q45L/V71I/Y165I)
Test: Biochemical NLuc enzyme assay with S16 secNLuc cell culture medium

NLuc, sequence (Q9GV45 28-196 with the stated changes): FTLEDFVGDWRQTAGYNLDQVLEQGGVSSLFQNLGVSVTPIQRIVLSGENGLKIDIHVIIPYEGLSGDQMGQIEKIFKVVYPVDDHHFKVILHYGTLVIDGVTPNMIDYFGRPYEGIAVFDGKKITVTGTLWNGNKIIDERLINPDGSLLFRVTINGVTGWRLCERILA

Row | Structure (SMILES) | IC50 [µM]
1 | COC(=O)C1=C(C)NC(C)=C(C(=O)OC(C)C)C1c1cccc2nonc12 (centres unmarked) [isradipine] | 6
2 | CCOC(=O)C1=C(C)NC(C)=C(C(=O)OC)C1c1cccc([N+](=O)[O-])c1 (centres unmarked) [nitrendipine] | 6
